From patent EP0396400A1, “Microbial transformation product” (Merck & Co., Inc., priority 1989, dated 1990)

Test system: mouse T lymphocytes
Assay: T-cell proliferation assay (ionomycin plus PMA induced T-cell stimulation, tritiated thymidine uptake)
Assay type: cell-based, C57B1/6 mice
Conditions: T-lymphocyte, 10 ng/ml, standard
Description: The principle of this assay is to measure the proliferation of mouse T lymphocytes stimulated with the combination of ionomycin plus PMA. A positive sample in this assay will inhibit T-cell proliferation, as indicated by reduced tritiated thymidine uptake.
Cells were pelleted by centrifugation at 1500 rpm for 8 minutes. Contaminating red cells were removed by treating the pellet with ammonium chloride lysing buffer (GIBCO) for 2 minutes at 4°C. Cold medium was added and cells were again centrifuged at 1500 rpm for 8 minutes. T lymphocytes were then isolated by separation of the cell suspension on nylon wool columns as follows: Nylon wool columns were prepared by packing approximately 4 grams of washed and dried nylon wool into 20 ml plastic syringes. The columns were sterilized by autoclaving at 250°F for 30 minutes. […]
The cell suspension was immediately distributed into 96 well flat-bottom microculture plates (Costar) at 200 µl/well. […] The proliferation of T lymphocytes was assessed by measurement of tritiated thymidine incorporation. […] Radioactivity of filter discs corresponding to individual wells was measured by standard liquid scintillation counting methods (Betacounter). Mean counts per minute of replicate wells were calculated and the results expressed as percent inhibition of tritiated thymidine uptake (proliferation) as follows: [formula]

Work on `C=CC[C@@H]1/C=C(\C)C[C@H](C)C[C@H](OC)[C@H]2O[C@@](O)(C(=O)C(=O)N3CCCC[C@H]3C(=O)O[C@H](/C(C)=C/[C@@H]3CC[C@@H](O)[C@H](OC)C3)[C@H](C)[C@@H](O)CC1=O)[C@H](C)C[C@@H]2OC` [L-679,934] yielded an inhibition at 0.01 µg/mL of 99%.
